Test: Tested for inhibitory activity against Beta-glucosidase from Agrobacterium species

Row | Compound | Ki
1 | CCN(CC)c1ccc2cc(C(=O)NC[C@H]3N[C@H](CO)[C@H](O)[C@@H]3O)c(=O)oc2c1 [7-Diethylamino-2-oxo-2H-chromene-3-carboxylic acid ((R)-(3R,5S)-3,4-dihydroxy-5-hydroxymethyl-pyrrolidin-2-ylmethyl)-amide] | 0.0012 µM
2 | CCCCCCCCCCCC(=O)NC[C@H]1N[C@H](CO)[C@H](O)[C@@H]1O [Dodecanoic acid ((3S,4S,5R)-3,4-dihydroxy-5-hydroxymethyl-pyrrolidin-2-ylmethyl)-amide] | 0.1 µM
3 | O=C(CCc1ccccc1)NC[C@@H]1N[C@H](CO)[C@H](O)[C@@H]1O [N-((3S,4S,5R)-3,4-Dihydroxy-5-hydroxymethyl-pyrrolidin-2-ylmethyl)-3-phenyl-propionamide] | 0.15 µM
4 | O=C(NC[C@H]1N[C@H](CO)[C@H](O)[C@@H]1O)c1cccc2ccccc12 [Naphthalene-1-carboxylic acid ((3S,4S,5R)-3,4-dihydroxy-5-hydroxymethyl-pyrrolidin-2-ylmethyl)-amide] | 0.55 µM

Reference: BindingDB's records for doi:10.1016/s0960-894x(01)00126-3 (Technische Universität Graz, 2001)
